Legend:
PC12 cells = test: In vitro neuroprotection against oxygen glucose deprivation (OGD), MTT viability readout; format: cell-based; conditions: OGD 90 min, reoxygenation, furoxan 1, 10 or 25 μM, 24 hr
Protocol: FIGS. 3A-3C: Neuroprotection (FIG. 3A), MTT treatment was used to assess cell viability (FIG. 3B), and pCREB modulation (FIG. 3C) of furoxan compounds. Neuroprotection assay workflow: expose PC12 cells to oxygen glucose deprivation (OGD) for 90 min→reoxygenate and add furoxan (1, 10, or 25 μM)→incubate for 24 hr→MTT readout of viability. Data represented as mean and s.e.m. (n=3). *=p<0.05, **=p<0.01, ***=p<0.001 compared to vehicle control using one way ANOVA analysis with Dunnett's post-hoc test. Red dashed line indicates threshold of vehicle effects. For pCREB modulation, 31b (25 μM) was examined (PC-12 cells, 48 hr incubation) in the following: without insult, with OGD, L-NAME.
It has been shown that furoxans are protective against oxygen glucose deprivation (OGD), a commonly used cellular model of ischemic stroke. PC12 cells were submitted to OGD for 90 minutes followed by reoxygenation and treatment with varying concentrations of selected embodiments of compounds of Formula I (indicated in FIG. 3A). After 24 hr, MTT treatment was used to assess cell viability (FIG. 3B). […] It has been shown previously that 4-N-oxides release NO at a much slower rate than corresponding 2-N-oxides.

Male C57BL/6 mice = test: Step-through passive avoidance (STPA), scopolamine-induced amnesia; format: in vivo; conditions: scopolamine 1 mg/kg i.p. alone (vehicle treated: 270 s±30 s), 24 hr after training
Protocol: FIGS. 4A-4B: STPA experimental timeline (FIG. 4A), and results of Male C57BL/6 mice administered either vehicle or 31b via i.p. injection at 60 min or 120 min prior to training in STPA (FIG. 4B). […] Memory retention was measured as latency to enter the dark compartment 24 h after training. Data represented as mean and s.e.m.
The STPA apparatus consisted of an acrylic box with an illuminated compartment connected to a darkened compartment by a small guillotine door. Mice were placed in the illuminated side and were trained against their natural tendency to translocate to the dark side using an aversive stimulus (shock via electrified floor grading). Memory consolidation is measured as the latency times to enter the dark compartment 24 hr after training.
All procedures were performed under the approved IACUC protocol #108451. Male C57BL/6 mice (Envigo), N=9 per group, were habituated at the animal facility for at least 14 days. Ear tags were applied and animals weighed. 2 hr prior to the drug adminstration the mice were individually acclimated to the illuminated compartment to assess tendency to enter the dark chamber (measured in seconds). In this phase no shock was be delivered. […] The mice were then administered either vehicle (95 [0.9% NaCl]:5 [DMSO]) or 31b (0.1, 1, 10, or 20 mg/kg) via i.p. injection (50 μL) at 1 h or 2 h prior to training. […] Mice were individually placed into the light compartment and upon translocation to the dark compartment the guiltine door closed and the mice were trained by delivering a mild adversive stimulus (0.5 mA) via the electrified floor grading of the dark chamber. Each mouse was held in the dark chamber for 30 seconds, then returned to their cage for 120 seconds before the second training session. […] Memory retention was measured 24 hours after training by placing the same mouse in the light chamber and measuring latency to enter the dark chamber (no aversive stimulus is delivered during the retention test). Data was analyzed by one way ANOVA analysis with Dunnett's post-hoc test.

SMILES | Neuroprotection against OGD (cell viability by MTT) (PC12 cells) | Latency to enter the dark compartment (Male C57BL/6 mice) [s]
CC1CCN(Cc2no[n+]([O-])c2-c2ccc(Br)cc2)CC1 [33b] | outperform the corresponding 2-N-oxides | –
CC1CCN(Cc2no[n+]([O-])c2-c2ccc(OC(F)(F)F)cc2)CC1 [37b, 4-((4-methylpiperidin-1-yl)methyl)-3-(4-(trifluoromethoxy)phenyl)-1,2,5-oxadiazole 2-oxide] | outperform the corresponding 2-N-oxides | –
Cc1ccc(-c2c(CN3CCC(C)CC3)no[n+]2[O-])cc1 [38b, 4-((4-methylpiperdin-1-yl)methyl)-3-(p-tolyl)-1,2,5-oxadiazole 2-oxide] | outperform the corresponding 2-N-oxides | –
[2H]C1([2H])CC(C)CC([2H])([2H])N1Cc1no[n+]([O-])c1-c1ccc(F)cc1 [41b] | outperform the corresponding 2-N-oxides | –
CN1[C@@H]2C[C@@H](OC(=O)[C@H](CO)c3ccccc3)C[C@H]1[C@@H]1O[C@@H]12 [Scopolamine, reference compound] | – | 63.5
